Results: paper PMC5803267, “A small molecule inhibitor of Rheb selectively targets mTORC1 signaling” (Nature Communications, 2018)

Legend:
[1] = biological target: T1, human Rheb protein (1–169) (Homo sapiens, UniProt Q15382); assay: Isothermal calorimetry (ITC) of binding to Rheb
T1 construct: human Rheb protein (1–169) was purified from BL21 (DE3) Escherichia coli; His-Smt (His-SUMO) (N, cleaved yes); made in house; host or cells: BL21 (DE3) Escherichia coli
Method: For the STD-NMR fragment-based screen, HMQC-NMR, ITC, and crystallography, human Rheb protein (1–169) was purified from BL21 (DE3) Escherichia coli using a His-Smt-Rheb expression vector. The cell paste was lysed in lysis buffer (50 mM HEPES pH 7.5, 0.5 M NaCl, 5% Glycerol, 1% CHAPS, EDTA-free protease inhibitor tablets, lysozyme to 1 mg mL^−1, benzonase 250 U), sonicated, and purified on a HiTrap Ni Chelating Column (GE Healthcare) using the following buffer: 50 mM HEPES pH 7.5, 0.5 M NaCl, 5% Glycerol, and imidazole increasing in concentration from 5 mM to 500 mM. The His-Smt tag was cleaved using a Ulp1 enzyme and dialyzed into 50 mM HEPES pH 7.5, 0.5 M NaCl, 5% glycerol. The resultant protein was again purified on a Ni Chelating column to remove the Ulp1 enzyme and His-Smt tag and then purified by size exclusion chromatography on a Sephacryl S-100 26/60 column into the following final buffer: 20 mM NaPhos pH 7.0, 100 mM NaCl, 5 mM MgCl2, 2 mM TCEP. For HMQC NMR, ^15N-labeled Rheb was generated using the same protocol but grown in minimal medium supplemented with ^15N-labeled amino acids.
Supplementary Figure 8. Measurement of binding constant of NR1 with Rheb using isothermal
(1 picture or pasted object on this page, not shown here)

[2] = system: T389pS6K1 (mTORC1) in PC3 cells; assay: Chronic treatment of PC3 cells, T389pS6K1 Western blot; assay type: cell-based, human
Method: MCF-7 cells were serum-starved for 16 h and treated with compound for 90 min before cell lysis and Western blot analysis. For insulin-stimulated cells, 100 nM insulin was added 30 min before cell lysis. For EGF-stimulated cells, 100 ng mL^−1 EGF was added 10 min before cell lysis. c Rap1 activity was detected in lysates loaded in vitro with either GDP or GTPγS and treated with NR1 at the indicated concentrations. This was followed by a subsequent pulldown of GST-RalGDS-RBD. Bound Rap1 was detected by Western blot. d Evaluation of NR1 in a LAM patient-derived cell line (TRI102) under replete and serum-starved conditions. For replete conditions, TRI102 cells were treated for 90 min with compound in DMEM + 10% FBS. For serum-starved conditions, TRI102 cells were serum-starved 16 h and then treated for 90 min with compound prior to cell lysis and Western blot analysis. e HEK293 cells co-transfected with the indicated mTOR constructs and HA-GST-S6K1 were starved of amino acids or treated with NR1. To assess mTORC1 activity, an HA IP was performed and Western blots probed for ^T389pS6K1. f Chronic treatment of PC3 cells with NR1 to evaluate the inhibition of mTORC1 (using ^T389pS6K1) versus mTORC2 (using ^S473pAKT). PC3 cells were treated with compound under replete conditions for 24 h prior to cell lysis and Western blot analysis.
Accordingly, a hallmark of a selective mTORC1 inhibitor such as NR1 would be the lack of mTORC2 inhibition irrespective of the duration of treatment. PC3 cells are sensitive to mTORC2 inhibition with long-term rapamycin treatment. Indeed, upon treatment with rapamycin for 24 h, both ^T389pS6K1 and ^S473pAKT were lowered, indicating inhibitory effects on both mTORC1 and mTORC2, respectively.
For Western-based signaling assays, cells were treated for either 90 min or 2–24 h as indicated before lysis, normalization, and Western analysis. Cells were lysed in Triton lysis buffer: 1% Triton X-100, 50 mM HEPES pH 7.4, 100 mM NaCl, 2 mM EDTA, 10 mM β-glycerophosphate, 10 mM Na-pyrophosphate, protease inhibitor.

[3] = biological target: T2, FLAG-Rheb / myc-mTOR interaction (Homo sapiens, UniProt Q15382); assay: Co-immunoprecipitation of overexpressed FLAG-Rheb and myc-mTOR; assay type: cell-based; conditions: review-only material
T2 construct: expressed in transfected cells
T2 sequence (Q15382 1-181 limits assumed): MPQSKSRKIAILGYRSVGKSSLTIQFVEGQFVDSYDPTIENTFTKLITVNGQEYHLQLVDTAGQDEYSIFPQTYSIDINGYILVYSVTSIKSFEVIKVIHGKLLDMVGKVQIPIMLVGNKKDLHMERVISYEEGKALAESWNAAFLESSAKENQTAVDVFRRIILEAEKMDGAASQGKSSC
Source text: Response: We agree with Reviewer 2 and have included a brief discussion on the potential effects of chronic Rheb inhibition in the discussion section (p. 25).
“As with any new pharmacological agent, the anticipated side effects will need to be considered. The only data available from the literature that may help in understanding the potential side-effects of reducing Rheb activity come from genetic knock-out studies which, because of their inherent impacts on developmental and other effects, cannot be directly related to what might be expected following pharmacological inhibition. Thus, careful development of a novel Rheb inhibitor would have to take into account the potential organ systems that may be impacted, such as neurological63, 64 and […]
Below is a list of concerns that would need to be addressed in order for this work to be considered for publication in Nature Communications.
1. The authors state that it is “conceivable that portions of NR1 positioned outside the Rheb binding pocket sterically block the interaction with mTORC1. Given that the authors have access to recombinant Rheb and mTOR protein, it is unclear why there is no direct evidence that NR1 can inhibit their interaction. Alternatively, the effects of NR1 on Rheb-mTOR interactions could be shown in cells through co-IP. […]

T1 sequence (Q15382 1-169): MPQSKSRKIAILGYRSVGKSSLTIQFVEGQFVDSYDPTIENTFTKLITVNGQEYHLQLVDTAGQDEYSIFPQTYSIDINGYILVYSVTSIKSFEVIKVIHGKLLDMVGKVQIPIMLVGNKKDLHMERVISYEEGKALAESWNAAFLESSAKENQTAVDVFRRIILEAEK

Which Kd [1] does the source give for `CN(C)C(=O)c1ccc(Cn2c(C(=O)O)cc3c(Br)cc(Sc4ccc(Cl)c(Cl)c4)cc32)cc1` [NR1, 4-bromo-6-(3,4-dichlorophenylthio)-1-(4-(dimethylcarbamoyl)benzyl)-1H-indole-2-carboxylic acid] here?
The Kd was 1.5 µM.

What about the ΔH of binding [1] of the same compound?
Its ΔH of binding is “–0.315 kcal mol^−1”.

And the “T389pS6K1 after 24 h treatment” value ([2]; PC3, replete, 24 h, NR1 30 µM, rapamycin 100 nM)?
Its value is “potent inhibition”.

What about the “pS6K1 over time course” value ([2]; PC3, time points 2 h through 24 h) of the same compound?
The value was “inhibits pS6K1”.

And the Rheb-mTOR interaction [3]?
Its Rheb-mTOR interaction is “does not modulate”.
